Experimental data reported in ChEMBL document CHEMBL1201862, “PubChem BioAssay data set” (2004).
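Interpolation was linear, between the two tested concentrations surrounding the appropriate level; five concentrations were tested over 48 hours in 96-well plates. GI50 = concentration required for 50% inhibition of growth.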 The source made the active and inactive calls. Cut-off read from the data, not from the text of the source: active = GI50 up to about 1.1 µM and inactive = higher.

Key:
Test in all cases: growth of human tumour cells (NCI), 48 h
KM12 = test system: KM12
DLD-1 = test system: DLD-1
NCI-H460 = test system: NCI-H460
SR = test system: SR
OVCAR-5 = test system: OVCAR-5
SK-MEL-28 = test system: SK-MEL-28
TK-10 = test system: TK-10
XF498 = test system: XF498
HCT-15 = test system: HCT-15
HOP-18 = test system: HOP-18
SK-OV-3 = test system: SK-OV-3
Malme-3M = test system: Malme-3M
786-0 = test system: 786-0
KM-20L2 = test system: KM-20L2
SN12C = test system: SN12C
A498 = test system: A498
U-251 = test system: U-251
MOLT-4 = test system: MOLT-4
NCI-H522 = test system: NCI-H522
RXF 393 = test system: RXF 393
NCI-H23 = test system: NCI-H23
M19-MEL = test system: M19-MEL
A549 = test system: A549
HL-60 = test system: HL-60
LOX IMVI = test system: LOX IMVI
SF-539 = test system: SF-539
SF-268 = test system: SF-268
ACHN = test system: ACHN
SNB-19 = test system: SNB-19
HCT-116 = test system: HCT-116
SK-MEL-2 = test system: SK-MEL-2
NCI-H226 = test system: NCI-H226
OVCAR-8 = test system: OVCAR-8
DMS-114 = test system: DMS-114
K562 = test system: K562
UACC-257 = test system: UACC-257
EKVX = test system: EKVX
HCC 2998 = test system: HCC 2998
RPMI-8226 = test system: RPMI-8226
OVCAR-3 = test system: OVCAR-3
HOP-62 = test system: HOP-62
IGROV-1 = test system: IGROV-1
UACC-62 = test system: UACC-62
HOP-92 = test system: HOP-92
UO-31 = test system: UO-31
SNB-78 = test system: SNB-78
CCRF-CEM = test system: CCRF-CEM
LXFL 529 = test system: LXFL 529
HT-29 = test system: HT-29
M14 = test system: M14
OVCAR-4 = test system: OVCAR-4
SW-620 = test system: SW-620
DMS-273 = test system: DMS-273
SNB-75 = test system: SNB-75
SK-MEL-5 = test system: SK-MEL-5
CAKI-1 = test system: CAKI-1
COLO 205 = test system: COLO 205
SF-295 = test system: SF-295

Measured: GI50

COc1ccc([C@H]2[C@@H]3CCc4ccccc4C3=NN2C(N)=S)cc1OC
inactive: KM12 47.9 µM | DLD-1 53 µM | NCI-H460 44.1 µM | SR 27 µM | OVCAR-5 > 100 µM | SK-MEL-28 78 µM | TK-10 > 100 µM | XF498 > 100 µM | HOP-18 > 100 µM | SK-OV-3 > 100 µM | Malme-3M 85.3 µM | 786-0 54.2 µM | KM-20L2 57.7 µM | SN12C > 100 µM | A498 > 100 µM | U-251 60.3 µM | MOLT-4 31.1 µM | NCI-H522 15.9 µM | RXF 393 39.7 µM | NCI-H23 34.6 µM | M19-MEL 34.3 µM | A549 41.9 µM | HL-60 22.9 µM | LOX IMVI 32.6 µM | SF-539 > 100 µM | SF-268 85.9 µM | ACHN 32.7 µM | SNB-19 77.3 µM | HCT-116 47.9 µM | SK-MEL-2 50 µM | NCI-H226 45.6 µM | OVCAR-8 74.3 µM | DMS-114 28.8 µM | K562 22.4 µM | UACC-257 45.5 µM | EKVX 40.1 µM | HCC 2998 > 100 µM | RPMI-8226 37.9 µM | OVCAR-3 51.4 µM | HOP-62 97.7 µM | IGROV-1 69.3 µM | UACC-62 34 µM | HOP-92 35.4 µM | UO-31 36.1 µM | SNB-78 > 100 µM | CCRF-CEM 32.4 µM | LXFL 529 24.2 µM | HT-29 40 µM | M14 67.1 µM | OVCAR-4 41.4 µM | SW-620 58.2 µM
40.9 µM: HCT-15

Cc1ccc([N+](=O)[O-])cc1NC(=O)c1cccc([N+](=O)[O-])c1O
25 µM: HCT-15
inactive: KM12 19.1 µM | DMS-273 11.9 µM | DLD-1 20.7 µM | NCI-H460 12.2 µM | SK-MEL-28 11.5 µM | TK-10 31.2 µM | XF498 18.2 µM | SK-OV-3 17.1 µM | Malme-3M 5.09 µM | 786-0 28.9 µM | SNB-75 13.4 µM | KM-20L2 25.5 µM | SN12C 23.8 µM | A498 11.3 µM | U-251 15.9 µM | MOLT-4 15.6 µM | NCI-H522 3.97 µM | RXF 393 3.99 µM | NCI-H23 12.3 µM | M19-MEL 15.5 µM | A549 22.4 µM | HL-60 5.01 µM | SK-MEL-5 7.91 µM | LOX IMVI 26.6 µM | SF-539 12.3 µM | SF-268 14.6 µM | ACHN 14.4 µM | SNB-19 14.1 µM | SK-MEL-2 7.98 µM | NCI-H226 13.6 µM | OVCAR-8 23 µM | DMS-114 8.73 µM | K562 12.3 µM | UACC-257 9.59 µM | EKVX 21.2 µM | RPMI-8226 4.73 µM | OVCAR-3 7.24 µM | HOP-62 7.96 µM | IGROV-1 11.7 µM | UACC-62 3.85 µM | CAKI-1 17.8 µM | COLO 205 17.1 µM | UO-31 6.27 µM | SF-295 18 µM | SNB-78 20.8 µM | CCRF-CEM 18.2 µM | LXFL 529 19.1 µM | HT-29 20.1 µM | M14 16.8 µM | SW-620 34.2 µM
